Tests used:
Assay type in all cases: cell-based
Klebsiella pneumonia = assay: MIC against Gram-negative bacteria: Klebsiella pneumonia; settings: 5×10^5 CFU/mL; for MIC against K. pneumonia: Klebsiella pneumonia
How it was run: (§1)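 Inocula prepared by growing LB cultures at 37° C to 0.5 McFarland, centrifuging at 4000×g, and resuspending in fresh medium. Final density 5×10^5 CFU/mL per well with two-fold dilutions of purified EGF domain protein; shaking incubation at 37° C.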

Citrobacter diversus = assay: MIC against Gram-negative bacteria: Citrobacter diversus; settings: 5×10^5 CFU/mL; for MIC against C. diversus: Citrobacter diversus
How it was run: as §1

Serratia marcescens = assay: MIC against Gram-negative bacteria: Serratia marcescens; settings: 5×10^5 CFU/mL; for MIC against S. marcescens: Serratia marcescens
How it was run: as §1

Enterobacter cloacae = assay: MIC against Gram-negative bacteria: Enterobacter cloacae; settings: 5×10^5 CFU/mL; for MIC against E. cloacae: Enterobacter cloacae
How it was run: as §1

E. coli BL21 = assay: MIC against Gram-negative bacteria: E. coli BL21; settings: 5×10^5 CFU/mL
How it was run: as §1

Proteus vulgaris = assay: MIC against Gram-negative bacteria: Proteus vulgaris; settings: 5×10^5 CFU/mL; for MIC against P. vulgaris: Proteus vulgaris
How it was run: as §1

Proteus mirabilis = assay: MIC against Gram-negative bacteria: Proteus mirabilis; settings: 5×10^5 CFU/mL; for MIC against P. mirabilis: Proteus mirabilis
How it was run: as §1

E. coli DH5α = assay: Antibacterial activity: MIC and growth curve against E. coli DH5α in 96-well plate; settings: minimal inhibitory concentration against E. coli DH5α; 96-well plate, 5×10^5 CFU/mL, 37° C., judged after 8 h
How it was run: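 MIC taken as lowest protein level with no bacterial growth, tracked by A600 every 30 min during 37 °C, 175 rpm culture. Two-fold protein series 50-12.5 μg/mL final, triplicate wells, against 5×10^5 CFU/mL of LB-washed mid-log cells.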

Aeromonas hydrophila = assay: MIC against Gram-negative bacteria: Aeromonas hydrophila; settings: 5×10^5 CFU/mL; for MIC against A. hydrophila: Aeromonas hydrophila
How it was run: as §1

Moraxella catarrhalis = assay: MIC against Gram-negative bacteria: Moraxella catarrhalis; settings: 5×10^5 CFU/mL; for MIC against M. catarrhalis: Moraxella catarrhalis
How it was run: as §1

Pseudomonas aeruginosa = assay: MIC against Gram-negative bacteria: Pseudomonas aeruginosa; settings: 5×10^5 CFU/mL; for MIC against P. aeruginosa: Pseudomonas aeruginosa
How it was run: as §1

[1] = 10 h cultivation at 37° C., two-fold serial dilution
[2] = E. coli BL21, 10 h cultivation at 37° C.
[3] = K. pneumonia, 10 h cultivation at 37° C.
[4] = C. diversus, 10 h cultivation at 37° C.
[5] = S. marcescens, 10 h cultivation at 37° C.
[6] = E. cloacae, 10 h cultivation at 37° C.
[7] = P. vulgaris, 10 h cultivation at 37° C.
[8] = P. mirabilis, 10 h cultivation at 37° C.
[9] = A. hydrophila, 10 h cultivation at 37° C.
[10] = M. catarrhalis, 10 h cultivation at 37° C.
[11] = P. aeruginosa, 10 h cultivation at 37° C.

PRT622 (CNCNPMGSEPVGCRSDGTCVCKPGFGGPNC; listed as Homo sapiens)
12.5 µg/mL: MIC S. marcescens (Serratia marcescens; 96-well plate, 37° C., 10 h) | MIC P. vulgaris (Proteus vulgaris; 96-well plate, 37° C., 10 h) | MIC A. hydrophila (Aeromonas hydrophila; 96-well plate, 37° C., 10 h) | MIC M. catarrhalis (Moraxella catarrhalis; 96-well plate, 37° C., 10 h)
50 µg/mL: MIC K. pneumonia (Klebsiella pneumonia; 96-well plate, 37° C., 10 h) | MIC C. diversus (Citrobacter diversus; 96-well plate, 37° C., 10 h) | MIC E. coli BL21 (E. coli BL21; 96-well plate, 37° C., 10 h) | MIC P. mirabilis (Proteus mirabilis; 96-well plate, 37° C., 10 h)
25 µg/mL: MIC E. cloacae (Enterobacter cloacae; 96-well plate, 37° C., 10 h) | MIC (E. coli DH5α) | MIC P. aeruginosa (Pseudomonas aeruginosa; 96-well plate, 37° C., 10 h)

PRT1189 (ECVPYPGCVHGSCVEPWQCNCETNWGGLLCD; listed as Homo sapiens)
12.5 µg/mL: MIC S. marcescens (Serratia marcescens; [1]) | MIC E. cloacae (Enterobacter cloacae; [1]) | MIC E. coli BL21 (E. coli BL21; [1]) | MIC M. catarrhalis (Moraxella catarrhalis; [1])
50 µg/mL: MIC K. pneumonia (Klebsiella pneumonia; [1]) | MIC C. diversus (Citrobacter diversus; [1]) | MIC P. vulgaris (Proteus vulgaris; [1]) | MIC (E. coli DH5α)
25 µg/mL: MIC P. mirabilis (Proteus mirabilis; [1]) | MIC A. hydrophila (Aeromonas hydrophila; [1]) | MIC P. aeruginosa (Pseudomonas aeruginosa; [1])

PRT1442 (DKDECAKDNGGCQHECVNTFGSYLCRCRNGYWLHENGHDCK; listed as Homo sapiens)
25 µg/mL: MIC against C. diversus (Citrobacter diversus; 10 h cultivation at 37° C.) | MIC against S. marcescens (Serratia marcescens; 10 h cultivation at 37° C.) | MIC against P. mirabilis (Proteus mirabilis; 10 h cultivation at 37° C.) | MIC against A. hydrophila (Aeromonas hydrophila; 10 h cultivation at 37° C.)
12.5 µg/mL: MIC against E. cloacae (Enterobacter cloacae; 10 h cultivation at 37° C.) | MIC against E. coli BL21 (E. coli BL21; [2]) | MIC against P. vulgaris (Proteus vulgaris; 10 h cultivation at 37° C.) | MIC (E. coli DH5α) | MIC against P. aeruginosa (Pseudomonas aeruginosa; 10 h cultivation at 37° C.)
50 µg/mL: MIC against K. pneumonia (Klebsiella pneumonia; 10 h cultivation at 37° C.) | MIC against M. catarrhalis (Moraxella catarrhalis; 10 h cultivation at 37° C.)

PRT417 (DVNECQRYPGRLCGHKCENTLGSYLCSCSVGFRLSVDGRSCE; listed as Homo sapiens)
50 µg/mL: MIC (E. coli BL21; [2])
25 µg/mL: MIC (Citrobacter diversus; [4]) | MIC (Enterobacter cloacae; [6]) | MIC (E. coli DH5α) | MIC (Pseudomonas aeruginosa; [11])
12.5 µg/mL: MIC (Klebsiella pneumonia; [3]) | MIC (Serratia marcescens; [5]) | MIC (Proteus vulgaris; [7]) | MIC (Proteus mirabilis; [8]) | MIC (Aeromonas hydrophila; [9]) | MIC (Moraxella catarrhalis; [10])

PRT832 (DVDECAAGLAQCAHGCLNTQGSFKCVCHAGYELGADGRQCY; listed as Homo sapiens)
50 µg/mL: MIC (E. coli DH5α)
12.5 µg/mL: MIC (μg/mL) K. pneumonia (Klebsiella pneumonia; [3]) | MIC (μg/mL) S. marcescens (Serratia marcescens; [5]) | MIC (μg/mL) E. coli BL21 (E. coli BL21; [2]) | MIC (μg/mL) P. mirabilis (Proteus mirabilis; [8]) | MIC (μg/mL) A. hydrophila (Aeromonas hydrophila; [9]) | MIC (μg/mL) M. catarrhalis (Moraxella catarrhalis; [10]) | MIC (μg/mL) P. aeruginosa (Pseudomonas aeruginosa; [11])
25 µg/mL: MIC (μg/mL) C. diversus (Citrobacter diversus; [4]) | MIC (μg/mL) E. cloacae (Enterobacter cloacae; [6]) | MIC (μg/mL) P. vulgaris (Proteus vulgaris; [7])

PRT833 (CEANNGGCSHGCSHTSAGPLCTCPRGYELDTDQRTC; listed as Homo sapiens)
50 µg/mL: MIC (μg/mL) C. diversus (Citrobacter diversus; [4]) | MIC (μg/mL) E. cloacae (Enterobacter cloacae; [6]) | MIC (μg/mL) P. vulgaris (Proteus vulgaris; [7])
12.5 µg/mL: MIC (μg/mL) K. pneumonia (Klebsiella pneumonia; [3]) | MIC (μg/mL) S. marcescens (Serratia marcescens; [5]) | MIC (E. coli DH5α) | MIC (μg/mL) A. hydrophila (Aeromonas hydrophila; [9]) | MIC (μg/mL) M. catarrhalis (Moraxella catarrhalis; [10]) | MIC (μg/mL) P. aeruginosa (Pseudomonas aeruginosa; [11])
25 µg/mL: MIC (μg/mL) E. coli BL21 (E. coli BL21; [2]) | MIC (μg/mL) P. mirabilis (Proteus mirabilis; [8])

PRT1370 (GVRSCPGDCRGRGRCESGRCMCWPGYTGRDC; listed as Homo sapiens)
12.5 µg/mL: MIC against C. diversus (Citrobacter diversus; 10 h cultivation at 37° C.) | MIC against S. marcescens (Serratia marcescens; 10 h cultivation at 37° C.) | MIC against E. coli BL21 (E. coli BL21; [2])
25 µg/mL: MIC against E. cloacae (Enterobacter cloacae; 10 h cultivation at 37° C.) | MIC against P. vulgaris (Proteus vulgaris; 10 h cultivation at 37° C.) | MIC (E. coli DH5α) | MIC against A. hydrophila (Aeromonas hydrophila; 10 h cultivation at 37° C.) | MIC against M. catarrhalis (Moraxella catarrhalis; 10 h cultivation at 37° C.) | MIC against P. aeruginosa (Pseudomonas aeruginosa; 10 h cultivation at 37° C.)
50 µg/mL: MIC against K. pneumonia (Klebsiella pneumonia; 10 h cultivation at 37° C.) | MIC against P. mirabilis (Proteus mirabilis; 10 h cultivation at 37° C.)

From US9833497B2, “Human originated EGF domain proteins and use of the same” (CHENGDU SOURCEBIO LIMITED-LIABILITY COMPANY, priority 2013, dated 2017)
